Read-outs that look alike come from different tables or passages of the source.
Experiments:
KRas G12C = KRas G12C (Homo sapiens, UniProt P01116, C118S/C51S/C80L/G12C); assay: KRas G12C Modification Assay (LCMS detection of covalent adduct); type: binding; conditions: normalized percent of control; tested at 5 μM concentration for 3 hours
Method: A 10 μL aliquot of each protein solution was then transferred to a 384 well microtiter plate. Initial compound stocks were generated at fifty times their desired final assay concentration in DMSO.
Exemplary compounds of Formula (I) were diluted 25-fold into K-Ras Assay Buffer to a final of two times their final concentration. A 10 μL aliquot of each diluted compound solution was then added to each of the protein solutions in the microtiter plate to initiate reaction. […] At each time point, the reactions were quenched with 20 μL of a 25 mM acetic acid solution. […] Once all reactions were quenched, the plates were heat sealed and the samples were injected into a LC/MS system for data acquisition.
Samples were injected in their liquid phase onto a C-3 reverse phase column to remove assay buffer and prepare the samples for mass spectrometer. The proteins were eluted from the column using an acetonitrile gradient and fed directly into the mass analyzer. Initial raw data analysis took place in Agilent MassHunter software immediately post data acquisition.
Raw data analysis of the intact protein was exclusively a deconvolution of the multiple charge states of each protein in solution using a maximum entropy deconvolution provided in Mass Hunter. To minimize complexity, only the data over limited mass ranges were considered for analysis, with a minimum of one Dalton mass step intervals. The heights of all masses identified during raw data analysis were exported to be further analyzed in Spotfire® data analysis software.
Final data analysis was a multistep process in the Spotfire® data analysis software package. Briefly, each protein mass was calculated as a percent of the total signal of that sample, that percentage was then normalized to the percentage of signal of the protein in the absence of reactive compounds. Those normalized signals were reported as normalized percent of control (POC). […] Key: “A”≤25% POC; “B”>25% POC−≤50% POC; “C”>50% POC and ND=not determined.

[1] = system: NCI-H358 cells (express KRas G12C), Phospho-ERK; assay: Cellular inhibition of KRas G12C: Phospho-ERK in NCI-H358 cells; type: cell-based
Method: The cellular inhibition of KRAs G12C by exemplary compounds of the present invention was determined by measuring the amount of a downstream marker of KRas activity, phosphorylated ERK (“Phospho-ERK”).
Cells were plated in poly-D-Lysine coated 96-well plates at a concentration of 50,000 cells/well and allowed to attach for 8-12 hours. Diluted compounds were then added at a final concentration of 0.5% DMSO. After 3 hours, the medium was removed, 150 μL of 4% formaldehyde was added and the plates were incubated for 20 minutes. The plates were washed with PBS, and permeabilized using 150 μL of ice cold 100% methanol for 10 minutes. Non-specific antibody binding to the plates was blocked using 100 μL Licor Blocking Buffer (Li-Cor Biotechnology, Lincoln Nebr.) for 1 hour at room temperature. Positive control samples and samples lacking cells were parallel processed with test samples as standards.
The amount Phospho-ERK was determined using an antibody specific for the phosphorylated form of ERK and compared to the amount of GAPDH. […] The plates were incubated for 2 hours at room temperature. The plates were washed with PBS+0.05% Tween 20.
Secondary antibodies used to visualize primary antibodies were added as follows: Anti-rabbit-680 diluted 1:1000 and Anti-mouse-800 diluted 1:1000 in Licor Block+0.05% Tween 20 and incubated for 1 hour at room temperature. The plates were washed with PBS+0.05% Tween 20. A 100 μL aliquot of PBS was added to each well and the plates were read on a LICOR AERIUS plate reader.
The pERK(Thr202/Tyr204) signal was normalized with the GAPDH signal and percent of DMSO control values were calculated. IC50 values were generated using a 4 parameter fit of the dose response curve. Key: “A”≥0.0001−≤1 μM; and “B”>1 μM.

[2] = Homo sapiens, NCI-H358, 3 h, pERK(Thr202/Tyr204) normalized with GAPDH, NCI-H358 cells, 3 hours, read-out: IC50
[3] = pERK(Thr202/Tyr204) normalized with GAPDH, NCI-H358 cells, 3 hours, read-out: IC50
[4] = Homo sapiens, pERK(Thr202/Tyr204) normalized with GAPDH, NCI-H358 cells, 3 hours, read-out: IC50

**Q.** What does the source list for `C=CC(=O)N1CCN(c2nc(OC[C@H]3CCCN3C)nc3c2CCN(c2cc(O)cc4ccccc24)C3)CC1CC#N` (stereo partly drawn) [Example 178, 2-[4-[7-(3-hydroxy-1-naphthyl)-2-[[(2R)-1-methylpyrrolidin-2-yl]methoxy]-6,8-dihydro-5H-pyrido[3,4-d]pyrimidin-4-yl]-1-prop-2-enoyl-piperazin-2-yl]acetonitrile]?
**A.** POC (KRas G12C): C (“C”>50% POC); IC50 [1, 2]: 0.0001 to 1 µM

**Q.** With `C=CC(=O)N1CCN(c2nc(OC[C@@H]3CCCN3C)nc3c2CCN(c2cccc4ccccc24)C3)CC1COC` (stereo partly drawn) [Example 428, 1-(2-(methoxymethyl)-4-(2-(((S)-1-methylpyrrolidin-2-yl)methoxy)-7-(naphthalen-1-yl)-5,6,7,8-tetrahydropyrido[3,4-d]pyrimidin-4-yl)piperazin-1-yl)prop-2-en-1-one] as the compound, how does the POC (KRas G12C) read?
**A.** C (“C”>50% POC)

**Q.** What about the IC50 [1, 3] of the same compound?
**A.** > 1 µM

**Q.** What does the source list for `C=CC(=O)N1CCN(c2nc(OC[C@@H]3CCCN3C)nc3c2CCN(c2cccc(Cl)c2C(F)(F)F)C3)C[C@@H]1CC#N` [Example 427, 2-((S)-1-acryloyl-4-(7-(3-chloro-2-(trifluoromethyl)phenyl)-2-(((S)-1-methylpyrrolidin-2-yl)methoxy)-5,6,7,8-tetrahydropyrido[3,4-d]pyrimidin-4-yl)piperazin-2-yl)acetonitrile]?
**A.** POC (KRas G12C): C (“C”>50% POC); IC50 [1, 2]: 0.0001 to 1 µM

**Q.** Which POC (KRas G12C) does the source give for `C=CC(=O)N1CCN(c2nc(OCCCN3CCOCC3)nc3c2CCN(c2cc(O)cc4ccccc24)C3=O)CC1` [Example 121, 4-(4-acryloylpiperazin-1-yl)-7-(3-hydroxynaphthalen-1-yl)-2-(3-morpholinopropoxy)-6,7-dihydropyrido[3,4-d]pyrimidin-8(5H)-one] here?
**A.** C (“C”>50% POC)

**Q.** And the IC50 [1, 4]?
**A.** > 1 µM

**Q.** With `C=CC(=O)N1CCN(c2nc(OC[C@@H]3CCCN3C)nc3c2CCN(c2cccc4cccc(Cl)c24)C3)CC1CC#N` (stereo partly drawn) [Example 310, 2-(1-acryloyl-4-(7-(8-chloronaphthalen-1-yl)-2-(((S)-1-methylpyrrolidin-2-yl)methoxy)-5,6,7,8-tetrahydropyrido[3,4-d]pyrimidin-4-yl)piperazin-2-yl)acetonitrile] as the compound, how does the IC50 ([1]; Homo sapiens, NCI-H358, 3 h) read?
**A.** 0.0001 to 1 µM

**Q.** Which results are given for `C=CC(=O)N1CCN(c2nc(OC[C@@H]3CCCN3C)nc3c2CCN(c2cccc(F)c2F)C3)C[C@@H]1CC#N` [Example 406, 2-((S)-1-acryloyl-4-(7-(2,3-difluorophenyl)-2-(((S)-1-methylpyrrolidin-2-yl)methoxy)-5,6,7,8-tetrahydropyrido[3,4-d]pyrimidin-4-yl)piperazin-2-yl)acetonitrile]?
**A.** POC (KRas G12C): C (“C”>50% POC); IC50 [1, 2]: > 1 µM

**Q.** Which IC50 ([1]; Homo sapiens, NCI-H358, 3 h) does the source give for `C=CC(=O)N1CCN(c2nc(OC[C@]3(C)CCCN3C)nc3c2CCN(c2cccc4ccccc24)C3)CC1CC#N` (stereo partly drawn) [Example 251, 2-(1-acryloyl-4-(2-(((S)-1,2-dimethylpyrrolidin-2-yl)methoxy)-7-(naphthalen-1-yl)-5,6,7,8-tetrahydropyrido[3,4-d]pyrimidin-4-yl)piperazin-2-yl)acetonitrile] here?
**A.** 0.0001 to 1 µM

**Q.** How did the POC (KRas G12C) turn out when `C=CC(=O)N1CCN(c2nc(OC[C@H]3CN(C)CCO3)nc3c2CCN(c2cccc4ccccc24)C3)CC1CC#N` (stereo partly drawn) [Example 441, 2-(1-Acryloyl-4-(2-(((R)-4-methylmorpholin-2-yl)methoxy)-7-(naphthalen-1-yl)-5,6,7,8-tetrahydropyrido[3,4-d]pyrimidin-4-yl)piperazin-2-yl)acetonitrile] was run?
**A.** C (“C”>50% POC)

**Q.** For `C=CC(=O)N1CCN(c2nc(OC[C@@H]3CCCN3C)nc3c2CCN(c2cccc4ccccc24)C3)CC1` [Example 200, (S)-1-(4-(2-((1-methylpyrrolidin-2-yl)methoxy)-7-(naphthalen-1-yl)-5,6,7,8-tetrahydropyrido[3,4-d]pyrimidin-4-yl)piperazin-1-yl)prop-2-en-1-one], which IC50 ([1]; Homo sapiens, NCI-H358, 3 h) is on record?
**A.** > 1 µM

**Q.** How did the IC50 ([1]; Homo sapiens, NCI-H358, 3 h) turn out when `C=CC(=O)N1CCN(c2nc(OC[C@H]3CCCN3C)nc3c2CCN(c2cc(O)cc4ccccc24)C3)CC1` [Example 187, (R)-1-(4-(7-(3-hydroxynaphthalen-1-yl)-2-((1-methylpyrrolidin-2-yl)methoxy)-5,6,7,8-tetrahydropyrido[3,4-d]pyrimidin-4-yl)piperazin-1-yl)prop-2-en-1-one] was run?
**A.** 0.0001 to 1 µM

**Q.** Which IC50 ([1]; Homo sapiens, NCI-H358, 3 h) does the source give for `C=CC(=O)N1CCN(c2nc(OC[C@@H]3CCCN3C)nc3c2CCN(c2cc(O)cc4ccccc24)C3)CC1` [Example 127, (S)-1-(4-(7-(3-hydroxynaphthalen-1-yl)-2-((1-methylpyrrolidin-2-yl)methoxy)-5,6,7,8-tetrahydropyrido[3,4-d]pyrimidin-4-yl)piperazin-1-yl)prop-2-en-1-one] here?
**A.** 0.0001 to 1 µM

**Q.** For `CC#CC(=O)N1CCN(c2nc(OC[C@@H]3CCCN3C)nc3c2CCN(c2cccc4ccccc24)C3)CC1CC#N` (stereo partly drawn) [Example 242, 2-(1-(but-2-ynoyl)-4-(2-(((S)-1-methylpyrrolidin-2-yl)methoxy)-7-(naphthalen-1-yl)-5,6,7,8-tetrahydropyrido[3,4-d]pyrimidin-4-yl)piperazin-2-yl)acetonitrile], which IC50 [1, 4] is on record?
**A.** 0.0001 to 1 µM

**Q.** Which POC (KRas G12C) does the source give for `C=CC(=O)N1CCN(c2nc(OC[C@H]3CN(C)[C@H](C)CO3)nc3c2CCN(c2cccc4ccccc24)C3)C[C@@H]1CC#N` [Example 449, 2-((S)-1-Acryloyl-4-(2-(((2R,5R)-4,5-dimethylmorpholin-2-yl)methoxy)-7-(naphthalen-1-yl)-5,6,7,8-tetrahydropyrido[3,4-d]pyrimidin-4-yl)piperazin-2-yl)acetonitrile] here?
**A.** C (“C”>50% POC)

**Q.** How did the IC50 ([1]; Homo sapiens, NCI-H358, 3 h) turn out when `C=CC(=O)N1CCN(c2nc(OC[C@@H]3CCCN3C)nc3c2CCN(c2cccc4cccc(Cl)c24)C3)C[C@@H]1CC#N` [Example 331, 2-[(2S)-4-[7-(8-chloro-1-naphthyl)-2-[[(2S)-1-methylpyrrolidin-2-yl]methoxy]-6,8-dihydro-5H-pyrido[3,4-d]pyrimidin-4-yl]-1-prop-2-enoyl-piperazin-2-yl]acetonitrile] was run?
**A.** 0.0001 to 1 µM

**Q.** With `C=CC(=O)N1CCN(c2nc(OC[C@@H]3CCCN3C)nc3c2CCN(c2cccc(C)c2C(F)(F)F)C3)C[C@@H]1CC#N` [Example 392, 2-((S)-1-acryloyl-4-(7-(3-methyl-2-(trifluoromethyl)phenyl)-2-(((S)-1-methylpyrrolidin-2-yl)methoxy)-5,6,7,8-tetrahydropyrido[3,4-d]pyrimidin-4-yl)piperazin-2-yl)acetonitrile] as the compound, how does the IC50 [1, 3] read?
**A.** 0.0001 to 1 µM

**Q.** Which IC50 [1, 4] does the source give for `C=CC(=O)N1CCN(c2nc(OC[C@@H]3CCCN3C)nc3c2CCN(c2cccc4cccc(OC)c24)C3)C[C@@H]1CC#N` [Example 463, 2-((S)-1-acryloyl-4-(7-(8-methoxynaphthalen-1-yl)-2-(((S)-1-methylpyrrolidin-2-yl)methoxy)-5,6,7,8-tetrahydropyrido[3,4-d]pyrimidin-4-yl)piperazin-2-yl)acetonitrile] here?
**A.** > 1 µM

**Q.** With `C=CC(=O)N1CCN(c2nc(OC[C@@H]3CCCN3C)nc3c2CCN(c2cccc4cccc(C#N)c24)C3)C[C@@H]1CC#N` [Example 464, 8-(4-((S)-4-acryloyl-3-(cyanomethyl)piperazin-1-yl)-2-(((S)-1-methylpyrrolidin-2-yl)methoxy)-5,8-dihydropyrido[3,4-d]pyrimidin-7(6H)-yl)-1-naphthonitrile] as the compound, how does the IC50 [1, 4] read?
**A.** 0.0001 to 1 µM

**Q.** Which IC50 [1, 3] does the source give for `C=CC(=O)N1CCN(c2nc(OC[C@H]3CCCN3C)nc3c2CCN(c2cccc(F)c2C(F)(F)F)C3)C[C@@H]1CC#N` [Example 382, 2-((S)-1-acryloyl-4-(7-(3-fluoro-2-(trifluoromethyl)phenyl)-2-(((R)-1-methylpyrrolidin-2-yl)methoxy)-5,6,7,8-tetrahydropyrido[3,4-d]pyrimidin-4-yl)piperazin-2-yl)acetonitrile] here?
**A.** 0.0001 to 1 µM

Source: US10125134B2 (Mirati Therapeutics, Inc., priority 2016, dated 2018)
